According to ChEMBL document CHEMBL1154198, “Chemical genetics of Plasmodium falciparum” (Nature, 2010):

Columns and labels:
[1] = tested on: Plasmodium falciparum; experiment: ST_JUDE: Plasmodium falciparum 3D7 EC50 (uM) as measured by SYBR green dye; format: functional, organism-based
[2] = tested on: Plasmodium falciparum; experiment: ST_JUDE: Plasmodium falciparum K1 EC50 (uM) as measured by SYBR green dye; format: functional, organism-based

SMILES | EC50 [1] [µM] | EC50 [2] [µM]
Cc1ccc(O)c(-n2cc3c(c2-c2cccc([N+](=O)[O-])c2)c(=O)n(C)c(=O)n3C)c1 | 4.89 | 4.79
Oc1ccc(Nc2nc(NCc3ccccc3)c3ccccc3n2)cc1 | 0.203 | > 15
CC(=O)NCC(=O)NC1CC(C)(C)Cc2c1cnn2-c1ccccc1 (stereo not given) | > 15 | > 15
CC(=O)N(C1=C(N(C)C)C(=O)c2ccccc2C1=O)c1ccc(C(=O)O)cc1 | 1.3 | 1.9
COc1ccc(N2CCN(C(CNC(=O)c3ccc(C(C)(C)C)cc3)c3ccco3)CC2)cc1 (stereo not given) | > 15 | 1.51
COc1ccc(S(=O)(=O)/N=C2/C=C(Sc3nc[nH]n3)C(=O)c3ccccc32)cc1 | 1.94 | 2.34
Cc1ccc(Nc2c(-c3ccccn3)nc3ccc(C)cn23)cc1 | 3.93 | > 15
CCN1CCN(c2cc(C)c3cc(NC(=S)NCCCN4CC(C)CC(C)C4)ccc3n2)CC1 (stereo not given) | 5.34 | > 15
CCCc1cc(O)nc(-n2nc(C)cc2NC(=O)c2cc(Cl)ccc2Cl)n1 | > 15 | > 15
Cc1cccc(CN2C(=O)/C(=C\c3ccccc3)Sc3ccc(C(=O)NCCN(C)C4CCCCC4)cc32)c1 | 1.78 | 3.75
CC(C)CN1C(=O)c2ccccc2C(C(=O)Nc2ccc(Cl)cn2)C1c1cccs1 (stereo not given) | 3.44 | 4.78
O=C(Cc1ccccc1)NC(c1ccc([N+](=O)[O-])cc1)c1c(O)ccc2ccccc12 (stereo not given) | 6.31 | 5.77
CCCOc1ccc(-c2[nH]ncc2Oc2ccccc2)c(O)c1 | 4.7 | 2.49
COc1nc(-c2ccncc2)nc2ccccc12 | > 15 | > 15
CCc1c(C)nc(-n2nc(C)cc2NC(=O)c2ccccc2I)nc1O | > 15 | > 15
CCOC(=O)c1ccc(NC(=O)CSc2nn3c(=O)c(C)nnc3s2)cc1 | > 15 | > 15
COc1ccccc1Cn1ccnc1SCC(=O)Nc1cccc(C(F)(F)F)c1 | 1.47 | 1.59
CCCS(=O)(=O)N1CCC(CO)(Cc2ccccc2C(F)(F)F)CC1 | 3.37 | 2.26
CCN(CC)CCNC(=O)c1c(C)oc2c1C(=O)c1ccccc1C2=O | 0.256 | 0.191
CCc1nnc2n1NC(c1ccccc1)C(C(=O)Nc1ccccc1Cl)S2 (stereo not given) | > 15 | > 15
CC(C)CN1CCC(C(=O)Nc2ccc(-c3nc4ccccc4[nH]3)cc2)CC1 | > 15 | > 15
COc1ccc(Cl)c2sc(N(Cc3cccnc3)C(=O)c3ccc(C(C)=O)cc3)nc12 | 4.06 | 3.86

SMILES | EC50 [1] [µM] | EC50 [2] [µM]
COc1ccc(NC(=O)C2c3ccccc3C(=O)N(C)C2c2cccs2)cc1Cl (stereo not given) | 1.07 | 1.35
CCOc1ccc2nc(N(Cc3cccnc3)C(=O)c3cccs3)sc2c1 | 6.99 | 7
Cc1cccc(NC2=C(N3CCCCC3)C(=O)c3ccccc3C2=O)c1 | 0.0527 | 0.181
O=C(Nc1cccc(Br)c1)c1cc2ccccc2cc1O | > 15 | 0.57
O=C(CN(Cc1ccc(Cl)cc1)S(=O)(=O)c1ccccc1)N1CCN(c2ccccc2F)CC1 | 2.91 | 2.13
CCN(CC)C(=O)c1ccc2c(c1)N(Cc1ccccc1)C(=O)c1ccccc1S2(=O)=O | > 15 | > 15
Oc1ccc(Br)cc1CN1CCN(Cc2ccc(Cl)cc2)CC1 | 1.48 | 0.215
CCOc1cc(C2CC(=O)NC3=C2C(=O)CC(c2ccc(OC)c(OC)c2)C3)ccc1O (stereo not given) | 2.32 | 0.655
Oc1c(C(Nc2ccccn2)c2ccccc2Br)cc(Cl)c2cccnc12 (stereo not given) | 2.13 | > 15
CC(=O)N(C1=C(N2CCCC2)C(=O)c2ccccc2C1=O)C1CCCCC1 | 0.28 | 0.399
CCCCn1c(=O)c2c(nc3n(-c4ccc(C)c(Cl)c4)c(C)cn23)n(C)c1=O | > 15 | > 15
C=CCN1C(=O)c2[nH]nc(-c3c(C)cc(C)cc3O)c2C1c1cccc(OCC)c1 (stereo not given) | 3.52 | 2.83
CCc1cc2c(=O)c(Oc3ccc(Cl)cc3)coc2cc1OC(C)=O | > 15 | > 15
Cn1c(-c2ccc([N+](=O)[O-])cc2)[n+](C)c2ccccc21 | > 15 | 2.67
COc1ccc(C2C(C(=O)Nc3cc(OC)ccc3OC)c3ccccc3C(=O)N2C)cc1 (stereo not given) | > 15 | 6.96
CC(C)CC(=O)NC(c1ccc(Cl)cc1)c1c(O)ccc2ccccc12 (stereo not given) | 4.17 | 4.78
COc1cccc(NC2=C(N3CCCCC3)C(=O)c3ccccc3C2=O)c1 | 0.052 | 0.153
CCc1ccc(S(=O)(=O)/N=C2/C=C(Sc3nc[nH]n3)C(=O)c3ccccc32)cc1 | 4.79 | 6.99
c1cncc(CN2CCN(Cc3cccc4ccccc34)CC2)c1 | > 15 | > 15
CCOc1ccc(-c2nc(NC(=O)c3cccc(S(C)(=O)=O)c3)sc2C)cc1 | > 15 | > 15
CN(C)S(=O)(=O)c1ccc(C(=O)NNc2nc3ccc(F)cc3s2)cc1 | 6.05 | 4.27
Fc1ccc(-c2nc3ncccn3c2Nc2cccc(C(F)(F)F)c2)cc1 | 0.921 | 1.22

SMILES | EC50 [1] [µM] | EC50 [2] [µM]
COc1ccccc1Cn1ccnc1SCC(=O)Nc1cc(C)ccc1C | 1.97 | > 15
O=[N+]([O-])c1cccc(NC(=S)Nc2ccc(OC(F)F)c(Cl)c2)c1 | 6.66 | 4.46
CC(C)(CO)CN1CCC(C(=O)Nc2ccc(-c3nc4ccccc4[nH]3)cc2)CC1 | 6.81 | > 15
CC(=O)N1CCc2c(sc(NC(=O)c3cc([N+](=O)[O-])ccc3Cl)c2C#N)C1 | 4.07 | 1.32
CCOC(=O)C1=C(C)N=c2s/c(=C\c3cc(Cl)ccc3O)c(=O)n2C1c1ccccc1 (stereo not given) | > 15 | > 15
Cc1ccc(C)c(NC(=O)CSc2ccc(Cl)cc2)c1 | > 15 | > 15
CCN(CC)CCNC(=O)c1cc2c(-c3cccc(OC)c3)nn(C)c2s1 | 4.04 | > 15
Cc1cc(Nc2ccc(C)c(F)c2)n2nc(C)nc2n1 | 1.29 | 3.09
CCOC(=O)c1cnc2c(C)cc(C)cc2c1NCc1cccnc1 | 4.77 | 6.18
C#CCOc1cc(Br)c(C2CC(=O)Nc3ccc4ccccc4c32)cc1OC (stereo not given) | 3.96 | 2.96
Oc1ccc(Cl)cc1Nc1nc(C(F)(F)F)nc2ccccc12 | 1.2 | 0.638
CCCN1C(=O)c2[nH]nc(-c3c(C)cc(C)cc3O)c2C1c1ccc(OC)cc1 (stereo not given) | 3.36 | 2.02
COc1ccc(CCNC(=S)Nc2cccc(Cl)c2)cc1OC | 5.39 | 3.98
CCS(=O)(=O)Nc1ccc(C2=NN(C(=O)c3ccco3)C(c3ccc(F)cc3)C2)cc1 (stereo not given) | > 15 | 6.12
COc1ccc2sc(N(Cc3cccnc3)C(=O)c3ccc(Cl)cc3)nc2c1 | > 15 | > 15
COc1ccc(Nc2cc(C)nc(Nc3ccc(NS(=O)(=O)c4ccc(Cl)cc4)cc3)n2)cc1 | 0.564 | > 15
CCN1CCN(c2cc(C)c3cc(NC(=S)NCCCN4CCN(c5cccc(Cl)c5)CC4)ccc3n2)CC1 | 2.24 | 4.24
COc1cccc(C2=C(C(C)=O)Sc3nnc(C)n3N2C(C)=O)c1 | 6.59 | 5.95
CCN(CC)CCN1C(=O)c2oc3ccccc3c(=O)c2C1c1cccc(Cl)c1 (stereo not given) | 0.984 | 1.08
C=C(C)CCC(C)N1CCC(N2CCC(C(=O)NCCc3ccccc3)CC2)CC1 (stereo not given) | 4.26 | > 15
O=C(Nc1ccccc1-c1nc2ccccc2s1)C(Cl)(Cl)Cl | > 15 | 2.69
CCCOc1cc(Br)c(C2NC(S)=NC(c3ccccc3)=C2C(C)=O)cc1OCC (stereo not given) | > 15 | 4.24

SMILES | EC50 [1] [µM] | EC50 [2] [µM]
CC(C)CC(=O)NC(c1ccc(Cl)cc1Cl)c1ccc2cccnc2c1O (stereo not given) | > 15 | > 15
COc1ccc(-c2cnnc(N/N=C/c3ccc(O)cc3)n2)cc1 | > 15 | > 15
CN(Cc1cccc(OCCNC(=O)c2ccc3c(c2)OCO3)c1)Cc1cccc2cccnc12 | > 15 | > 15
CC(C)OCc1cc(CN2CCN(c3cccc(Cl)c3)CC2)c(O)c2ncccc12 | 0.941 | 0.808
Cc1cccc2nc(Cn3c(=O)n(Cc4ccc5c(c4)OCO5)c(=O)c4ccc(C(=O)NC5CCCCC5)cc43)cc(=O)n12 | > 15 | > 15
Cc1cccnc1Nc1nc(-c2ccccn2)cs1 | 1.84 | 1.32
CC(=O)Oc1ccc(Cl)cc1/C=C/c1cc(OC(C)=O)c2ccccc2n1 | > 15 | 1.5
O=C(Nc1ccccc1-c1ccccc1)C(Cl)(Cl)Cl | 1.56 | 1.15
COC(=O)c1c(S(=O)(=O)N2CCCC2)sc2c1CCN(CCC(C)c1ccccc1)C2 (stereo not given) | 4.39 | 4.78
CCN(CC)c1cc(C)nc(Nc2ccc(NS(=O)(=O)c3cc(C)ccc3OC)cc2)n1 | 4.17 | > 15
Cc1ccc(-c2nc(C(=O)N(CCC#N)Cc3cccnc3)cs2)cc1F | 3.34 | 4.68
CCCCC(=O)NC(c1ccc(Cl)cc1Cl)c1ccc2cccnc2c1O (stereo not given) | > 15 | 5.3
COc1cc(Br)c(C2C(C#N)=C(N)Oc3cc(O)ccc32)cc1OC (stereo not given) | > 15 | 5.8
Cc1ccc(-c2nc(C(=O)N(C)Cc3cccnc3)cs2)cc1F | 4.36 | 5.12
CC(C)(C)c1ccc(C(=O)Nc2nc3c(s2)CN(Cc2ccccc2)CC3)cc1 | > 15 | > 15
COC(=O)c1c(S(=O)(=O)NCc2ccccc2)sc2c1CCN(Cc1ccc(OC)cc1)C2 | > 15 | > 15
Cc1cccc(-n2ccnc2SCC(=O)Nc2cccc(F)c2)c1C | > 15 | 7.99
COc1ccc(Cl)cc1NC(=O)C1c2ccccc2C(=O)N(CC(C)C)C1c1cccs1 (stereo not given) | 0.367 | 0.386
CN(C)CCCNc1c2c(nc3ccccc13)CCC2 | > 15 | > 15
